This passage reports IC50 results from patent US9012642B2, “Pyrrolopyridinone compounds and methods for treating HIV” (ViiV Healthcare UK Limited, priority 2011, dated 2015).

Counter-ions that a name gives are not always drawn. Like-named read-outs stand apart in the source and are kept apart here.

In this test the test system is HIV. Nature of the test: HIV MT4 Assay (antiviral HIV activity in MT-4 cells). In kind it is cell-based. The method in brief: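 HTLV-1-transformed MT-4 cells were used to measure HIV inhibition and cytotoxicity in parallel, with cell titer glo read after 96 h. Percent inhibition was taken relative to no-compound control. IC50s came from a 10-point, 3–4-fold dilution series fitted by a four-parameter logistic equation.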

The mark [1] stands for this setting: Human immunodeficiency virus 1, MT4, HTLV-1 transformed cell line MT-4, luciferase activity measured 96 hours later, Table 3, read-out: HIV MT4 Assay IC50.
The mark [2] stands for this setting: MT4, 96 h, read-out: MT4 (IC50).

A word on the IC50: it is the point on the concentration scale where inhibition reaches its midpoint. Consider `Cn1c(C(OC(C)(C)C)C(=O)O)c(-c2ccc(Cl)cc2)c2ccn(CCN3CCCCC3)c2c1=O` (centres unmarked) [Example 7, 2-(tert-butoxy)-2-(4-(4-chlorophenyl)-6-methyl-7-oxo-1-(2-(piperidin-1-yl)ethyl)-6,7-dihydro-1H-pyrrolo[2,3-c]pyridin-5-yl)acetic acid], for which the IC50 is 1 µM under setting [1] and 1 µM under setting [2].

Turning to `Cc1ccc(-c2c(C(OC(C)(C)C)C(=O)O)n(C)c(=O)c3c2ccn3Cc2cc(F)c(F)c(F)c2)cc1` (centres unmarked) [Example 32, 2-(tert-butoxy)-2-(6-methyl-7-oxo-4-(p-tolyl)-1-(3,4,5-trifluorobenzyl)-6,7-dihydro-1H-pyrrolo[2,3-c]pyridin-5-yl)acetic acid], the IC50 is, setting by setting: under setting [1], 0.08 µM; under setting [2], 0.08 µM.

For `Cn1c(C(OC(C)(C)C)C(=O)O)c(-c2ccc(Cl)cc2)c2ccn(Cc3cn4ccccc4n3)c2c1=O` (centres unmarked) [Example 10, 2-(tert-butoxy)-2-(4-(4-chlorophenyl)-1-(imidazo[1,2-a]pyridin-2-ylmethyl)-6-methyl-7-oxo-6,7-dihydro-1H-pyrrolo[2,3-c]pyridin-5-yl)acetic acid], the IC50 by setting is: under setting [1], 3 µM; under setting [2], 3 µM.

Turning to `Cc1ccc(-c2c(C(OC(C)(C)C)C(=O)O)n(C)c(=O)c3c2ccn3Cc2cccs2)cc1` (centres unmarked) [Example 25, 2-(tert-butoxy)-2-(6-methyl-7-oxo-1-(thiophen-2-ylmethyl)-4-(p-tolyl)-6,7-dihydro-1H-pyrrolo[2,3-c]pyridin-5-yl)acetic acid], the 50% inhibitory concentration (IC50) by setting is: under setting [1], 0.22 µM; under setting [2], 0.22 µM.

With `Cc1ccc(-c2c(C(OC(C)(C)C)C(=O)O)n(C)c(=O)c3c2ccn3Cc2ccccc2)cc1` (centres unmarked) [Example 19, 2-(1-benzyl-6-methyl-7-oxo-4-(p-tolyl)-6,7-dihydro-1H-pyrrolo[2,3-c]pyridin-5-yl)-2-(tert-butoxy)acetic acid], the IC50 came to 0.08 µM under setting [1] and 0.08 µM under setting [2].

As to `Cc1c(-c2c(C(OC(C)(C)C)C(=O)O)n(C)c(=O)c3c2ccn3CC2CCOCC2)ccc2c1CCCO2` (centres unmarked) [Example 52, 2-(tert-butoxy)-2-(6-methyl-4-(5-methylchroman-6-yl)-7-oxo-1-((tetrahydro-2H-pyran-4-yl)methyl)-6,7-dihydro-1H-pyrrolo[2,3-c]pyridin-5-yl)acetic acid], the IC50 by setting is: under setting [1], 0.35 µM; under setting [2], 0.35 µM.

Regarding `COc1ccc(Cn2c3c(c4c(-c5ccc6c(c5C)CCCO6)c(C(OC(C)(C)C)C(=O)O)n(C)c(=O)c42)CCCC3)cc1` (centres unmarked) [Example 62, 2-(tert-butoxy)-2-(9-(4-methoxybenzyl)-2-methyl-4-(5-methylchroman-6-yl)-1-oxo-2,5,6,7,8,9-hexahydro-1H-pyrido[3,4-b]indol-3-yl)acetic acid], the IC50 is, setting by setting: under setting [1], 0.05 µM; under setting [2], 0.05 µM.

As for `Cc1c(-c2c(C(OC(C)(C)C)C(=O)O)n(C)c(=O)c3c2ccn3Cc2ccc(C(F)(F)F)cc2)ccc2c1CCCO2` (centres unmarked) [Example 46, 2-(tert-butoxy)-2-(6-methyl-4-(5-methylchroman-6-yl)-7-oxo-1-(4-(trifluoromethyl)benzyl)-6,7-dihydro-1H-pyrrolo[2,3-c]pyridin-5-yl)acetic acid], the IC50 reads like this: under setting [1], 0.09 µM; under setting [2], 0.09 µM.

Regarding `Cn1c(C(OC(C)(C)C)C(=O)O)c(-c2ccc(Cl)cc2)c2ccn(S(=O)(=O)c3ccc(F)cc3)c2c1=O` (centres unmarked) [Example 16, 2-(tert-butoxy)-2-(4-(4-chlorophenyl)-1-((4-fluorophenyl)sulfonyl)-6-methyl-7-oxo-6,7-dihydro-1H-pyrrolo[2,3-c]pyridin-5-yl)acetic acid], the concentration for half-maximal inhibition (IC50) stood at 1.8 µM under setting [1] and 1.8 µM under setting [2].

Take `Cc1ccc(-c2c(C(OC(C)(C)C)C(=O)O)n(C)c(=O)c3c2c2c(n3C)CCCC2)cc1` (centres unmarked) [Example 60, 2-(tert-butoxy)-2-(2,9-dimethyl-1-oxo-4-(p-tolyl)-2,5,6,7,8,9-hexahydro-1H-pyrido[3,4-b]indol-3-yl)acetic acid]: the IC50 was 0.05 µM under setting [1] and 0.05 µM under setting [2].

Consider `Cc1c(-c2c(C(OC(C)(C)C)C(=O)O)n(C)c(=O)c3c2ccn3Cc2cscn2)ccc2c1CCCO2` (centres unmarked) [Example 50, 2-(tert-butoxy)-2-(6-methyl-4-(5-methylchroman-6-yl)-7-oxo-1-(thiazol-4-ylmethyl)-6,7-dihydro-1H-pyrrolo[2,3-c]pyridin-5-yl)acetic acid, Trifluoroacetic acid salt], for which the IC50 runs as follows: under setting [1], 0.23 µM; under setting [2], 0.23 µM.

As to `COc1ccc(Cn2c3c(c4c(-c5ccc(C)cc5)c(C(OC(C)(C)C)C(=O)O)n(C)c(=O)c42)CCCC3)cc1` (centres unmarked) [Example 61, 2-(tert-butoxy)-2-(9-(4-methoxybenzyl)-2-methyl-1-oxo-4-(p-tolyl)-2,5,6,7,8,9-hexahydro-1H-pyrido[3,4-b]indol-3-yl)acetic acid], the IC50 is, setting by setting: under setting [1], 0.1 µM; under setting [2], 0.1 µM.

On to `COc1ccc(Cn2ccc3c(-c4ccc(Cl)cc4)c(C(OC(C)(C)C)C(=O)O)n(C)c(=O)c32)cc1` (centres unmarked) [Example 3, 2-(tert-butoxy)-2-(4-(4-chlorophenyl)-1-(4-methoxybenzyl)-6-methyl-7-oxo-6,7-dihydro-1H-pyrrolo[2,3-c]pyridin-5-yl)acetic acid], for which the IC50 reads like this: under setting [1], 0.46 µM; under setting [2], 0.46 µM.
